Experimental data from patent US20240208992A1, “MACROCYCLES AS CFTR MODULATORS” (Idorsia Pharmaceuticals Ltd, priority 2021, published 2024).

Molecular target: human F508del-CFTR (Homo sapiens, UniProt P13569, DEL508-508)
Assay: F508del-CFTR cell surface expression (corrector activity), DiscoveRx ß-galactosidase complementation chemiluminescence assay in recombinant U2OS cell line;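 note: U2OS cells co-expressing ProLink-tagged F508del-CFTR and a membrane-anchored enzyme acceptor, where more surface CFTR restores β-galactosidase activity measured by chemiluminescence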
Conditions: U2OS cell line, 16h compound incubation; for EC50: EC50, F508del-CFTR cell surface expression, geomean values; for Emax: U2OS, in relation to the Emax of the corrector lumacaftor (=100%), arithmetic mean values

human F508del-CFTR, sequence (P13569 with tags, fused parts or gaps DEL508-508): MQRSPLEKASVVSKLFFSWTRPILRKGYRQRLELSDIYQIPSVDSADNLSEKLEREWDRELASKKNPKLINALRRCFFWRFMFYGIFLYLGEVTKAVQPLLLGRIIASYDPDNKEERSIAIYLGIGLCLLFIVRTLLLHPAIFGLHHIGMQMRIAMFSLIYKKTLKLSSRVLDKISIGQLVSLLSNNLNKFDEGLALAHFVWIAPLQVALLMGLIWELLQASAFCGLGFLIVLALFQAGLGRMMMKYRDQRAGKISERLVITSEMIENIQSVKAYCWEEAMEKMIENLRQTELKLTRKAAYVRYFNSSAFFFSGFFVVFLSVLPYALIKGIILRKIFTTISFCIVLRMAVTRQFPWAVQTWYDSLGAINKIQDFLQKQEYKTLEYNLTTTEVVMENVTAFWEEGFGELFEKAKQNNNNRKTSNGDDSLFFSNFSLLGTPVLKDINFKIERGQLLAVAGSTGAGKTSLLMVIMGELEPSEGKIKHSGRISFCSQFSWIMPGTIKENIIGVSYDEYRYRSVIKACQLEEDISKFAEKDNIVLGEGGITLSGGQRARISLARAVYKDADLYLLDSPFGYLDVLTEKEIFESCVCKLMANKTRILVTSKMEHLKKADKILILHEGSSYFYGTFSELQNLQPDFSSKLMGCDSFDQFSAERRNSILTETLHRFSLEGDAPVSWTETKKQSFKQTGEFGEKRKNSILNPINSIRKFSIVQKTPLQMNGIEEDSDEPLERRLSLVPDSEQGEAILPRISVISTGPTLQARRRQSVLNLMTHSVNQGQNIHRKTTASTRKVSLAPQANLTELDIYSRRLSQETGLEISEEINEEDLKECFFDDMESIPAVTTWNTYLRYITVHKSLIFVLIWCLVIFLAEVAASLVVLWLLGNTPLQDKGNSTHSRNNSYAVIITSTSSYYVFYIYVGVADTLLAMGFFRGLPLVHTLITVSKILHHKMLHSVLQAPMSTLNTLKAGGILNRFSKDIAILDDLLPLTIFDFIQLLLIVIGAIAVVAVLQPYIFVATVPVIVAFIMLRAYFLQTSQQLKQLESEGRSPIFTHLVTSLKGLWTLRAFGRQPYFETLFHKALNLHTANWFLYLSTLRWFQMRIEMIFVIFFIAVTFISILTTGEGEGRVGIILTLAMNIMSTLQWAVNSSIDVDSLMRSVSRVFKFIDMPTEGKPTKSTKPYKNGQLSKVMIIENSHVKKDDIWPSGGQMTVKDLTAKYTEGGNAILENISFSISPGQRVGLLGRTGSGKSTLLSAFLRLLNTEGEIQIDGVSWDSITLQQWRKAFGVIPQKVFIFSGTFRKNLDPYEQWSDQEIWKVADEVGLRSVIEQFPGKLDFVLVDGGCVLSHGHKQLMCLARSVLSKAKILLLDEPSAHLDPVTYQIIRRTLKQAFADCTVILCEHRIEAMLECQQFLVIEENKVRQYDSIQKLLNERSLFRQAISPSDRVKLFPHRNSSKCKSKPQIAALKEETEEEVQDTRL

Row | Compound | EC50 | Emax
1 | COc1cccc2c1C(=O)N[C@H](C(=O)NCCc1ccc3c(c1)OCO3)CC(=O)N(C)[C@@H](C)C(=O)N(CCC1CCCCC1)CC(=O)N[C@H](Cc1ccccc1)CO2 [Example 263, (3R,9S,13S)-N-(2-(benzo[d][1,3]dioxol-5-yl)ethyl)-3-benzyl-7-(2-cyclohexylethyl)-16-methoxy-9,10-dimethyl-5,8,11,15-tetraoxo-2,3,4,5,6,7,8,9,10,11,12,13,14,15-tetradecahydrobenzo[p][1]oxa[4,7,10,14]tetraazacycloheptadecine-13-carboxamide] | 448 nM | 140%
2 | COc1cccc(CCNC(=O)[C@@H]2CC(=O)N(C)[C@@H](C)C(=O)N(CCC3CCCCC3)CC(=O)N[C@H](Cc3ccccc3)COc3cccc(OC)c3C(=O)N2)c1 [Example 264, (3R,9S,13S)-3-benzyl-7-(2-cyclohexylethyl)-16-methoxy-N-(3-methoxyphenethyl)-9,10-dimethyl-5,8,11,15-tetraoxo-2,3,4,5,6,7,8,9,10,11,12,13,14,15-tetradecahydrobenzo[p][1]oxa[4,7,10,14]tetraazacycloheptadecine-13-carboxamide] | 442 nM | 117%
3 | CC(C)C[C@H]1C(=O)N(CCC2CCCCC2)CC(=O)N[C@H](Cc2ccccc2)COc2cnccc2C(=O)N[C@H](C(=O)NCCc2ccc3c(c2)OCO3)CC(=O)N1C [Example 265, (3R,9S,13S)-N-(2-(benzo[d][1,3]dioxol-5-yl)ethyl)-3-benzyl-7-(2-cyclohexylethyl)-9-isobutyl-10-methyl-5,8,11,15-tetraoxo-2,3,4,5,6,7,8,9,10,11,12,13,14,15-tetradecahydropyrido[4,3-p][1]oxa[4,7,10,14]tetraazacycloheptadecine-13-carboxamide] | 266 nM | 106%
4 | COc1cccc(CCNC(=O)[C@@H]2CC(=O)N(C)[C@@H](CC(C)C)C(=O)N(CCC3CCCCC3)CC(=O)N[C@H](Cc3ccccc3)COc3cnccc3C(=O)N2)c1 [Example 266, (3R,9S,13S)-3-benzyl-7-(2-cyclohexylethyl)-9-isobutyl-N-(3-methoxyphenethyl)-10-methyl-5,8,11,15-tetraoxo-2,3,4,5,6,7,8,9,10,11,12,13,14,15-tetradecahydropyrido[4,3-p][1]oxa[4,7,10,14]tetraazacycloheptadecine-13-carboxamide] | 357 nM | 136%
5 | CC(C)C[C@H]1C(=O)N(CCC2CCCCC2)CC(=O)N[C@H](Cc2ccccc2)COc2ccc3ccccc3c2C(=O)N[C@H](C(=O)NCCc2ccc3c(c2)OCO3)CC(=O)N1C [Example 267, (3S,7S,13R)-N-(2-(benzo[d][1,3]dioxol-5-yl)ethyl)-13-benzyl-9-(2-cyclohexylethyl)-7-isobutyl-6-methyl-1,5,8,11-tetraoxo-1,2,3,4,5,6,7,8,9,10,11,12,13,14-tetradecahydronaphtho[1,2-p][1]oxa[4,7,10,14]tetraazacycloheptadecine-3-carboxamide] | 107 nM | 275%
6 | COc1cccc(CCNC(=O)[C@@H]2CC(=O)N(C)[C@@H](CC(C)C)C(=O)N(CCC3CCCCC3)CC(=O)N[C@H](Cc3ccccc3)COc3ccc4ccccc4c3C(=O)N2)c1 [Example 268, (3S,7S,13R)-13-benzyl-9-(2-cyclohexylethyl)-7-isobutyl-N-(3-methoxyphenethyl)-6-methyl-1,5,8,11-tetraoxo-1,2,3,4,5,6,7,8,9,10,11,12,13,14-tetradecahydronaphtho[1,2-p][1]oxa[4,7,10,14]tetraazacycloheptadecine-3-carboxamide] | 100 nM | 273%
7 | CC(C)C[C@H]1C(=O)N(C)CC(=O)N[C@H](Cc2ccccc2)COc2ccc3ccccc3c2C(=O)N[C@H](C(=O)NCCc2ccc3c(c2)OCO3)CC(=O)N1C [Example 269, (3S,7S,13R)-N-(2-(benzo[d][1,3]dioxol-5-yl)ethyl)-13-benzyl-7-isobutyl-6,9-dimethyl-1,5,8,11-tetraoxo-1,2,3,4,5,6,7,8,9,10,11,12,13,14-tetradecahydronaphtho[1,2-p][1]oxa[4,7,10,14]tetraazacycloheptadecine-3-carboxamide] | 350 nM | 251%
8 | Cc1cc2c(cn1)C(=O)N[C@H](C(=O)NCCc1ccc3c(c1)OCO3)CC(=O)N(C)[C@@H](CC(C)C)C(=O)N(CCC1CCCCC1)CC(=O)N[C@H](Cc1ccccc1)CO2 [Example 270, (3R,9S,13S)-N-(2-(benzo[d][1,3]dioxol-5-yl)ethyl)-3-benzyl-7-(2-cyclohexylethyl)-9-isobutyl-10,18-dimethyl-5,8,11,15-tetraoxo-2,3,4,5,6,7,8,9,10,11,12,13,14,15-tetradecahydropyrido[3,4-p][1]oxa[4,7,10,14]tetraazacycloheptadecine-13-carboxamide] | 423 nM | 172%
9 | COc1cccc(CCNC(=O)[C@@H]2CC(=O)N(C)[C@@H](CC(C)C)C(=O)N(CCC3CCCCC3)CC(=O)N[C@H](Cc3ccccc3)COc3cc(C)ncc3C(=O)N2)c1 [Example 271, (3R,9S,13S)-3-benzyl-7-(2-cyclohexylethyl)-9-isobutyl-N-(3-methoxyphenethyl)-10,18-dimethyl-5,8,11,15-tetraoxo-2,3,4,5,6,7,8,9,10,11,12,13,14,15-tetradecahydropyrido[3,4-p][1]oxa[4,7,10,14]tetraazacycloheptadecine-13-carboxamide] | 266 nM | 185%
10 | COc1cc(OC)c2c(c1)OC[C@@H](Cc1ccccc1)NC(=O)CN(CCC1CCCCC1)C(=O)[C@H](C)N(C)C(=O)C[C@@H](C(=O)NCCc1ccc3c(c1)OCO3)NC2=O [Example 272, (3R,9S,13S)-N-(2-(benzo[d][1,3]dioxol-5-yl)ethyl)-3-benzyl-7-(2-cyclohexylethyl)-16,18-dimethoxy-9,10-dimethyl-5,8,11,15-tetraoxo-2,3,4,5,6,7,8,9,10,11,12,13,14,15-tetradecahydrobenzo[p][1]oxa[4,7,10,14]tetraazacycloheptadecine-13-carboxamide] | 374 nM | 176%
11 | COc1cccc(CCNC(=O)[C@@H]2CC(=O)N(C)[C@@H](C)C(=O)N(CCC3CCCCC3)CC(=O)N[C@H](Cc3ccccc3)COc3cc(OC)cc(OC)c3C(=O)N2)c1 [Example 273, (3R,9S,13S)-3-benzyl-7-(2-cyclohexylethyl)-16,18-dimethoxy-N-(3-methoxyphenethyl)-9,10-dimethyl-5,8,11,15-tetraoxo-2,3,4,5,6,7,8,9,10,11,12,13,14,15-tetradecahydrobenzo[p][1]oxa[4,7,10,14]tetraazacycloheptadecine-13-carboxamide] | 365 nM | 169%
12 | COc1cc(OC)c2c(c1)OC[C@@H](Cc1ccccc1)NC(=O)CN(CCC1CCCCC1)C(=O)[C@H](CC(C)C)N(C)C(=O)C[C@@H](C(=O)NCCc1ccc3c(c1)OCCC3)NC2=O [Example 275, (3R,9S,13S)-3-benzyl-N-(2-(chroman-7-yl)ethyl)-7-(2-cyclohexylethyl)-9-isobutyl-16,18-dimethoxy-10-methyl-5,8,11,15-tetraoxo-2,3,4,5,6,7,8,9,10,11,12,13,14,15-tetradecahydrobenzo[p][1]oxa[4,7,10,14]tetraazacycloheptadecine-13-carboxamide] | 148 nM | 333%
13 | COc1cc(OC)c2c(c1)OC[C@@H](Cc1ccccc1)NC(=O)CN(CCC1CCCCC1)C(=O)[C@H](CC(C)C)N(C)C(=O)C[C@@H](C(=O)NCCc1ccc3c(c1)OCC3)NC2=O [Example 276, (3R,9S,13S)-3-benzyl-7-(2-cyclohexylethyl)-N-(2-(2,3-dihydrobenzofuran-6-yl)ethyl)-9-isobutyl-16,18-dimethoxy-10-methyl-5,8,11,15-tetraoxo-2,3,4,5,6,7,8,9,10,11,12,13,14,15-tetradecahydrobenzo[p][1]oxa[4,7,10,14]tetraazacycloheptadecine-13-carboxamide] | 91 nM | 333%
14 | COc1cccc(CCNC(=O)[C@@H]2CC(=O)N(C)[C@@H](CC(C)C)C(=O)N(C)CC(=O)N[C@H](Cc3ccccc3)COc3cccc(F)c3C(=O)N2)c1 [Example 277, (3R,9S,13S)-3-benzyl-16-fluoro-9-isobutyl-N-(3-methoxyphenethyl)-7,10-dimethyl-5,8,11,15-tetraoxo-2,3,4,5,6,7,8,9,10,11,12,13,14,15-tetradecahydrobenzo[p][1]oxa[4,7,10,14]tetraazacycloheptadecine-13-carboxamide] | 830 nM | 134%
15 | CC(C)C[C@H]1C(=O)N(C)CC(=O)N[C@H](Cc2ccccc2)COc2cccc(F)c2C(=O)N[C@H](C(=O)NCCc2ccc3c(c2)OCO3)CC(=O)N1C [Example 278, (3R,9S,13S)-N-(2-(benzo[d][1,3]dioxol-5-yl)ethyl)-3-benzyl-16-fluoro-9-isobutyl-7,10-dimethyl-5,8,11,15-tetraoxo-2,3,4,5,6,7,8,9,10,11,12,13,14,15-tetradecahydrobenzo[p][1]oxa[4,7,10,14]tetraazacycloheptadecine-13-carboxamide] | 709 nM | 167%
16 | CC(C)C[C@H]1C(=O)N(C)CC(=O)N[C@H](Cc2ccccc2)COc2cccc(Cl)c2C(=O)N[C@H](C(=O)NCCc2ccc3c(c2)OCO3)CC(=O)N1C [Example 279, (3R,9S,13S)-N-(2-(benzo[d][1,3]dioxol-5-yl)ethyl)-3-benzyl-16-chloro-9-isobutyl-7,10-dimethyl-5,8,11,15-tetraoxo-2,3,4,5,6,7,8,9,10,11,12,13,14,15-tetradecahydrobenzo[p][1]oxa[4,7,10,14]tetraazacycloheptadecine-13-carboxamide] | 643 nM | 112%
17 | CCOc1cccc2c1C(=O)N[C@H](C(=O)NCCc1cccc(OC)c1)CC(=O)N(C)[C@@H](CC(C)C)C(=O)N1CCCC[C@@H]1C(=O)N[C@H](Cc1ccccc1)CO2 [Example 280, (7S,11S,20R,22aR)-20-benzyl-14-ethoxy-7-isobutyl-N-(3-methoxyphenethyl)-8-methyl-6,9,13,22-tetraoxo-1,3,4,6,7,8,9,10,11,12,13,19,20,21,22,22a-hexadecahydro-2H-benzo[p]pyrido[2,1-f][1]oxa[4,7,10,14]tetraazacycloheptadecine-11-carboxamide] | 297 nM | 188%
